{"source": "patent US11654096B2", "about": "(L'OREAL, priority 2017, dated 2023)", "assay_type_in_all_cases": "cell-based", "key": {"[1]": {"system": "normal human dermal fibroblasts (NHDFs)", "assay": "Neosynthesis of sulfated GAGs by NHDFs, [35S]-sulfate incorporation", "settings": "sulfated GAGs, NHDFs; for [35S]-Sulfate (cpm): single replicates", "protocol": "(§1) The effects of the compounds on the neosynthesis of total and sulfated glycosaminoglycans (GAGs) were studied on two cell models, normal human epidermal keratinocytes (NHEKs) and normal human dermal fibroblasts (NHDFs). The effects of these compounds were evaluated by measuring: • the incorporation of [3H]-glucosamine into the total GAGs neosynthesized by NHEKs and by NHDFs, • the incorporation of [35S]-sulfate into the sulfated GAGs neosynthesized by NHEKs and by NHDFs.\n(§2) The fibroblasts were seeded into wells and cultured in culture medium for 24 hours. The medium was then replaced with culture medium containing or not containing (controt) the compounds to be tested or the reference (TGF-β at 10 ng/ml), then the cells were incubated for 72 hours with the addition of the [35S]-sulfate radioactive label (sulfated GAGs) or of the [3H]-glucosamine radioactive label (total GAGs) for the final 24 hours of incubation.\n(§3) At the end of the incubation, the glycosaminoglycans were extracted from the cells with a chaotropic buffer. The GAGs were then purified by ion exchange chromatography: adsorption of the anionic molecules on Q-Sepharose beads and desorption of the molecules of low or medium anionic nature, with a suitable solution.\n(§4) The radioactivity incorporated into the molecules left on the support (GAGs, predominantly) was measured by liquid scintillation.\n(§5) All the experimental conditions were performed in n=3.\n(§6) The inter-group comparisons were performed using Student's non-paired two-sided t-test. The statistical analyses can be interpreted if n≥5; however, for n<5, the data calculated are provided only by way of indication."}, "[2]": {"system": "normal human dermal fibroblasts (NHDFs)", "assay": "Neosynthesis of total GAGs by NHDFs, [3H]-glucosamine incorporation", "settings": "for % Control / Mean (cpm) / [3H]-glucosamine (cpm): total GAGs, NHDFs; for [3H]-glucosamine (cpm): single replicates", "protocol": "as §1, §2, §3, §4, §5, §6"}, "[3]": {"system": "normal human epidermal keratinocytes (NHEKs)", "assay": "Neosynthesis of sulfated GAGs by NHEKs, [35S]-sulfate incorporation", "settings": "for % Control / Mean (cpm) / [35S]-Sulfate (cpm): sulfated GAGs, NHEKs; for [35S]-Sulfate (cpm): single replicates", "protocol": "as §1\n(§7) The keratinocytes were seeded into wells and cultured in culture medium for 24 hours. The medium was then replaced with culture medium containing or not containing (control) the compounds to be tested or the reference (4-nitrophenyl β-D-xylopyranoside at 300 μM), then the cells were incubated for 72 hours with the addition of the [3H]-glucosamine radioactive label (total GAGs) or of the [35S]-sulfate radioactive label (sulfated GAGs) for the final 24 hours of incubation.\nas §3, §4, §5, §6"}, "[4]": {"system": "normal human epidermal keratinocytes (NHEKs)", "assay": "Neosynthesis of total GAGs by NHEKs, [3H]-glucosamine incorporation", "settings": "for % Control / Mean (cpm) / [3H]-glucosamine (cpm): total GAGs, NHEKs; for [3H]-glucosamine (cpm): single replicates", "protocol": "as §1, §7, §3, §4, §5, §6"}}, "note": "Several values for one entry are separate records, joined by “and”; a condition that tells them apart may be missing. Equal values may be shown once.", "data": [{"smiles": "Oc1cc(O)cc(/C=C/c2ccc(O[C@@H]3OC[C@@H](O)[C@H](O)[C@H]3O)cc2)c1", "note": "[Compound 2a, 4-[(E)-2-(3,5-dihydroxy-phenyl)ethenyl]phenyl β-D-xylopyranoside]", "values": [{"measurement": "% Control", "setting": "[1]; campaign 2, 10 μM", "result": 141, "unit": "%"}, {"measurement": "Mean (cpm)", "setting": "[1]; campaign 2, 10 μM", "result": 795, "unit": "cpm"}, {"measurement": "[35S]-Sulfate (cpm)", "setting": "[1]; campaign 2, 10 μM", "result": "765 cpm and 835 cpm and 786 cpm"}, {"measurement": "% Control", "setting": "[1]; campaign 2, 100 μM", "result": 533, "unit": "%"}, {"measurement": "Mean (cpm)", "setting": "[1]; campaign 2, 100 μM", "result": 3015, "unit": "cpm"}, {"measurement": "[35S]-Sulfate (cpm)", "setting": "[1]; campaign 2, 100 μM", "result": "2858 cpm and 3230 cpm and 2958 cpm"}, {"measurement": "effect on the neosynthesis of the total GAGs by the NHDFs (in words)", "setting": "[2]; tested at 10 and 100 μM", "result": "stimulated in a concentration-dependent manner"}, {"measurement": "% Control", "setting": "[2]; campaign 2, 10 μM", "result": 104, "unit": "%"}, {"measurement": "Mean (cpm)", "setting": "[2]; campaign 2, 10 μM", "result": 1624, "unit": "cpm"}, {"measurement": "[3H]-glucosamine (cpm)", "setting": "[2]; campaign 2, 10 μM", "result": "1758 cpm and 1479 cpm and 1636 cpm"}, {"measurement": "% Control", "setting": "[2]; campaign 2, 100 μM", "result": 126, "unit": "%"}, {"measurement": "Mean (cpm)", "setting": "[2]; campaign 2, 100 μM", "result": 1973, "unit": "cpm"}, {"measurement": "[3H]-glucosamine (cpm)", "setting": "[2]; campaign 2, 100 μM", "result": "1958 cpm and 1959 cpm and 2003 cpm"}, {"measurement": "% Control", "setting": "[3]; campaign 2, 1 μM", "result": 114, "unit": "%"}, {"measurement": "Mean (cpm)", "setting": "[3]; campaign 2, 1 μM", "result": 6073, "unit": "cpm"}, {"measurement": "[35S]-Sulfate (cpm)", "setting": "[3]; campaign 2, 1 μM", "result": "5974 cpm and 6365 cpm and 5879 cpm"}, {"measurement": "% Control", "setting": "[3]; campaign 2, 10 μM", "result": 240, "unit": "%"}, {"measurement": "Mean (cpm)", "setting": "[3]; campaign 2, 10 μM", "result": 12748, "unit": "cpm"}, {"measurement": "[35S]-Sulfate (cpm)", "setting": "[3]; campaign 2, 10 μM", "result": "11209 cpm and 13332 cpm and 13703 cpm"}, {"measurement": "effect on the neosynthesis of the sulfated GAGs by the NHEKs (in words)", "setting": "[3]; tested at 1 and 10 μM", "result": "stimulated in a concentration-dependent manner"}, {"measurement": "effect on the neosynthesis of the total GAGs by the NHEKs (in words)", "setting": "[4]; tested at 1 and 10 μM", "result": "stimulated in a concentration-dependent manner"}, {"measurement": "% Control", "setting": "[4]; campaign 2, 1 μM", "result": 120, "unit": "%"}, {"measurement": "Mean (cpm)", "setting": "[4]; campaign 2, 1 μM", "result": 10215, "unit": "cpm"}, {"measurement": "[3H]-glucosamine (cpm)", "setting": "[4]; campaign 2, 1 μM", "result": "9472 cpm and 10133 cpm and 11041 cpm"}, {"measurement": "% Control", "setting": "[4]; campaign 2, 10 μM", "result": 151, "unit": "%"}, {"measurement": "Mean (cpm)", "setting": "[4]; campaign 2, 10 μM", "result": 12844, "unit": "cpm"}, {"measurement": "[3H]-glucosamine (cpm)", "setting": "[4]; campaign 2, 10 μM", "result": "11913 cpm and 12452 cpm and 14167 cpm"}]}, {"smiles": "Oc1ccc(/C=C/c2cc(O)cc(O[C@@H]3OC[C@@H](O)[C@H](O)[C@H]3O)c2)cc1", "note": "[Compound 1a, 3-hydroxy-5-[(E)-2-(4-hydroxyphenyl)ethenyl]phenyl β-D-xylopyranoside]", "values": [{"measurement": "% Control", "setting": "[1]; campaign 1, 10 μM", "result": 211, "unit": "%"}, {"measurement": "Mean (cpm)", "setting": "[1]; campaign 1, 10 μM", "result": 3472, "unit": "cpm"}, {"measurement": "[35S]-Sulfate (cpm)", "setting": "[1]; campaign 1, 10 μM", "result": "3286 cpm and 3573 cpm and 3557 cpm"}, {"measurement": "% Control", "setting": "[1]; campaign 1, 100 μM", "result": 537, "unit": "%"}, {"measurement": "Mean (cpm)", "setting": "[1]; campaign 1, 100 μM", "result": 8844, "unit": "cpm"}, {"measurement": "[35S]-Sulfate (cpm)", "setting": "[1]; campaign 1, 100 μM", "result": "8753 cpm and 8534 cpm and 9244 cpm"}, {"measurement": "% Control", "setting": "[1]; campaign 2, 10 μM", "result": 221, "unit": "%"}, {"measurement": "Mean (cpm)", "setting": "[1]; campaign 2, 10 μM", "result": 1254, "unit": "cpm"}, {"measurement": "[35S]-Sulfate (cpm)", "setting": "[1]; campaign 2, 10 μM", "result": "1274 cpm and 1307 cpm and 1180 cpm"}, {"measurement": "% Control", "setting": "[1]; campaign 2, 100 μM", "result": 411, "unit": "%"}, {"measurement": "Mean (cpm)", "setting": "[1]; campaign 2, 100 μM", "result": 2328, "unit": "cpm"}, {"measurement": "[35S]-Sulfate (cpm)", "setting": "[1]; campaign 2, 100 μM", "result": "2237 cpm and 2369 cpm and 2379 cpm"}, {"measurement": "% Control", "setting": "[2]; campaign 2, 10 μM", "result": 108, "unit": "%"}, {"measurement": "Mean (cpm)", "setting": "[2]; campaign 2, 10 μM", "result": 1684, "unit": "cpm"}, {"measurement": "[3H]-glucosamine (cpm)", "setting": "[2]; campaign 2, 10 μM", "result": "1622 cpm and 1750 cpm and 1680 cpm"}, {"measurement": "% Control", "setting": "[2]; campaign 2, 100 μM", "result": 90, "unit": "%"}, {"measurement": "Mean (cpm)", "setting": "[2]; campaign 2, 100 μM", "result": 1408, "unit": "cpm"}, {"measurement": "[3H]-glucosamine (cpm)", "setting": "[2]; campaign 2, 100 μM", "result": "1422 cpm and 1331 cpm and 1470 cpm"}, {"measurement": "% Control", "setting": "[3]; campaign 1, 10 μM", "result": 137, "unit": "%"}, {"measurement": "Mean (cpm)", "setting": "[3]; campaign 1, 10 μM", "result": 9319, "unit": "cpm"}, {"measurement": "[35S]-Sulfate (cpm)", "setting": "[3]; campaign 1, 10 μM", "result": "9304 cpm and 9522 cpm and 9131 cpm"}, {"measurement": "% Control", "setting": "[3]; campaign 1, 100 μM", "result": 839, "unit": "%"}, {"measurement": "Mean (cpm)", "setting": "[3]; campaign 1, 100 μM", "result": 56923, "unit": "cpm"}, {"measurement": "[35S]-Sulfate (cpm)", "setting": "[3]; campaign 1, 100 μM", "result": "53801 cpm and 56728 cpm and 60239 cpm"}, {"measurement": "% Control", "setting": "[3]; campaign 2, 10 μM", "result": 217, "unit": "%"}, {"measurement": "Mean (cpm)", "setting": "[3]; campaign 2, 10 μM", "result": 11501, "unit": "cpm"}, {"measurement": "[35S]-Sulfate (cpm)", "setting": "[3]; campaign 2, 10 μM", "result": "10206 cpm and 12532 cpm and 11765 cpm"}, {"measurement": "% Control", "setting": "[3]; campaign 2, 100 μM", "result": 973, "unit": "%"}, {"measurement": "Mean (cpm)", "setting": "[3]; campaign 2, 100 μM", "result": 51673, "unit": "cpm"}, {"measurement": "[35S]-Sulfate (cpm)", "setting": "[3]; campaign 2, 100 μM", "result": "46568 cpm and 54125 cpm and 54327 cpm"}, {"measurement": "% Control", "setting": "[4]; campaign 1, 10 μM", "result": 117, "unit": "%"}, {"measurement": "Mean (cpm)", "setting": "[4]; campaign 1, 10 μM", "result": 15165, "unit": "cpm"}, {"measurement": "[3H]-glucosamine (cpm)", "setting": "[4]; campaign 1, 10 μM", "result": "14440 cpm and 15184 cpm and 15871 cpm"}, {"measurement": "% Control", "setting": "[4]; campaign 1, 100 μM", "result": 235, "unit": "%"}, {"measurement": "Mean (cpm)", "setting": "[4]; campaign 1, 100 μM", "result": 30380, "unit": "cpm"}, {"measurement": "[3H]-glucosamine (cpm)", "setting": "[4]; campaign 1, 100 μM", "result": "30079 cpm and 29149 cpm and 31911 cpm"}, {"measurement": "% Control", "setting": "[4]; campaign 2, 10 μM", "result": 134, "unit": "%"}, {"measurement": "Mean (cpm)", "setting": "[4]; campaign 2, 10 μM", "result": 11405, "unit": "cpm"}, {"measurement": "[3H]-glucosamine (cpm)", "setting": "[4]; campaign 2, 10 μM", "result": "10145 cpm and 11857 cpm and 12213 cpm"}, {"measurement": "% Control", "setting": "[4]; campaign 2, 100 μM", "result": 199, "unit": "%"}, {"measurement": "Mean (cpm)", "setting": "[4]; campaign 2, 100 μM", "result": 16980, "unit": "cpm"}, {"measurement": "[3H]-glucosamine (cpm)", "setting": "[4]; campaign 2, 100 μM", "result": "16745 cpm and 16574 cpm and 17621 cpm"}]}]}
